Consider 15 molecules from ChEMBL document CHEMBL3425398, “(Dis)similar Analogues of Riboswitch Metabolites as Antibacterial Lead Compounds” (J Med Chem, 2015).

Each structure is given as a SMILES string. ≈ marks a conversion by molar mass, not a printed value.

Assay [1] can be described thus: Binding affinity to TPP riboswitch in Bacillus subtilis.
The nature of assay [2]: Binding affinity to lysC riboswitch in Bacillus subtilis.
The nature of assay [3]: Binding affinity to TPP riboswitch in Escherichia coli.
The nature of assay [4]: Binding affinity to guanine riboswitch in Bacillus subtilis.
The nature of assay [5]: Activation of glmS riboswitch in Bacillus subtilis.
Assay [6] has as its system Staphylococcus aureus. In words: Antibacterial activity against Staphylococcus aureus in rich cation-adjusted Muller-Hinton broth in presence of 1.5 mM DTT. It counts as functional.
Assay [7] concerns Staphylococcus aureus. Description: Antibacterial activity against Staphylococcus aureus in rich cation-adjusted Muller-Hinton broth. It counts as functional.
For a further assay, the system named is Bacillus subtilis. Description: Antibacterial activity against Bacillus subtilis in chemical defined medium. It counts as functional.
Assay [8] in a line: Binding affinity to thiM riboswitch in Escherichia coli.
Assay [9] is described as follows: Binding affinity to thiC riboswitch in Escherichia coli.
Assay [10] is described as follows: Activation of glmS riboswitch in Staphylococcus aureus.

The Kd is a measure of binding affinity in units of concentration. `Cc1ncc(C[n+]2cccc(CCOP(=O)([O-])OP(=O)(O)O)c2C)c(N)n1` gave a Kd in assay [1] of 160 nM.
In [2], `NCCCC[C@H](N)C(=O)O` [LYSINE] showed a Kd of 360 nM.
As for `Cc1ncc(Cn2cc(CCOP(=O)(O)OP(=O)(O)O)nn2)c(N)n1`, the affinity in [3], expressed as Kd, was 370 nM.
In assay [4], `Nc1nc2[nH]cnc2/c(=N\O)[nH]1` displayed a Kd of 20 nM.
On to `NC/C=C/CC(N)C(=O)O` (racemic), for which, in [2], the affinity, expressed as Kd, was 970 nM.
The term EC50 denotes the concentration at which the effect is half-maximal. Read a high EC50 as a less potent agent. `N[C@H]1C(O)O[C@H](COP(=O)(O)O)[C@@H](O)[C@@H]1O` (stereo partly specified) registered an EC50 in assay [5] of 200000 nM.
The MIC is the lowest concentration that inhibits growth of the organism. In the case of `Nc1nc(N)c(N)c(=O)[nH]1`, the MIC with Staphylococcus aureus [6] turned out to be 14 µM; against Staphylococcus aureus [7], 4000 µM (≈ 565 µg/mL). This molecule showed a Kd in assay [4] of 100 nM.
`NCCOC[C@H](N)C(=O)O` yielded an MIC against Bacillus subtilis of 26 µM (≈ 3.85 µg/mL). This molecule yielded a Kd in assay [2] of 13000 nM.
Turning to `Cc1ncc(C[n+]2csc(CCOP(=O)([O-])OP(=O)(O)O)c2C)c(N)n1` [THIAMIN DIPHOSPHATE], the dissociation constant Kd in [8] came to 600 nM; in assay [1], 50 nM; in assay [9] it was 100 nM.
The molecule `NCCSC[C@H](N)C(=O)O` came in with an MIC against Bacillus subtilis of 26 µM (≈ 4.27 µg/mL). For the same molecule, the Kd in assay [2] is 30000 nM.
Molecule `N=C(N)NCCCC[C@H](N)C(=O)O` showed a Kd in assay [2] of 7000 nM.
In turn, `N[C@@H]1[C@@H](O)[C@H](O)[C@@H](COP(=O)(O)O)C[C@@H]1O` displayed an EC50 in [10] of 6200 nM.
Take `Cc1ncc(Cn2nnc(CCOP(=O)(O)CP(=O)(O)O)c2C)c(N)n1`: in assay [3], the Kd worked out at 9 nM.
The molecule `CC(=O)Nc1nc(=O)c2[nH]cnc2[nH]1` gave a Kd in assay [4] of 0.5 nM.
Same read-out and setting: with `Nc1nc2[nH]cnc2c(=O)[nH]1` [GUANINE] the figure was 5 nM.
